Measured values: patent publication US10765654B2, “Methods and compounds for treating cancer” (University of Vermont and State Agricultural College, priority 2011, dated 2020)

Key:
[1] = test system: OG33 oligodendroglioma stem cells; assay: Cell cycle profile by propidium iodide staining and flow cytometry; format: cell-based, human; settings: 0.25% GTA in SCM for 24 hours; OG33
Protocol: (§1) Cell cycle profiles were visualized by propidium iodide (PI) staining as previously described (Perez-Martinez & Jaworski (2005) J Neurosci 25:4917-29). OG35, OG33 and mouse neural stem cells were grown in stem cell medium (SCM; DMEM/F12, B27, 20 ng/ml ea bFGF & EGF) while the oligodendrocyte progenitor cell line, Oli-neu (Jung et al. (1995) Eur J Neurosci 7:1245-65) was grown in Sato's medium (DMEM supplemented with 100 μg/ml apotransferrin, 5 μg/ml insulin, 60 nM triiodothyronine, 30 nM sodium selenite, 100 μM putrescine, 1% horse serum, and 25 μg/ml G418). […] after 0.25% (v/v) GTA treatment, cells were trypsinized, recovered by centrifugation, re-suspended (10^6 cells/ml) in a low-salt PI solution ([…] polyethylene glycol PEG 8000, […], 180 U/ml RNase A, 0.1% Triton X-100, and 4 mM sodium citrate), and incubated at 37° C. for 20 minutes. After addition of an equal volume of high-salt PI solution ([…] polyethylene glycol PEG 8000, […], 180 U/ml RNase A, 0.1% Triton X-100, and 400 mM NaCl) and incubation at 4° C. for 1 hour, cell cycle profiles were recorded by flow cytometry (BD LSR 11 Flow Cytometer, BD Biosciences; Franklin Lakes, N.J.).

[2] = test system: OG35 oligodendroglioma stem cells; assay: as above; format: cell-based, human; settings: 0.25% GTA in SCM for 24 hours; OG35
Protocol: as §1

GBM12 GSCs = assay: Cell cycle profile of GBM-derived GSC spheres (flow cytometry); format: cell-based, human; settings: 0.25% GTA in SCM for 24 hours; all GSCs except GBM8
Protocol: as §1
Flow cytometry was performed 24 hours after GTA treatment as described in prior examples herein.

[3] = test system: OG33 oligodendroglioma stem cells; assay: Growth dynamics, unbiased trypan blue exclusion based cytometry; format: cell-based, human; settings: 0.25% GTA, 5 days of treatment
Protocol: (§2) Growth dynamics were assessed using unbiased trypan blue exclusion based cytometry. Cells were plated (at 10,000 cells per well of a 24-well plate) directly in the absence or presence of 0.25% GTA. After 1, 3, and 5 days of treatment, cells were typsinized, collected via centrifugation, and counted according to the manufacturer's instructions (Countess Automated Cell Counter; Invitrogen Life Technologies; Carlsbad, Calif.).

[4] = test system: OG35 oligodendroglioma stem cells; assay: as above; format: cell-based, human; settings: 0.25% GTA, 5 days of treatment
Protocol: as §2

GBM8 GSCs = assay: as above; format: cell-based, human; settings: GTA; GBM8 cells grown in DM
Protocol: as §2
Growth dynamics was determined as described in prior examples herein.

ASPA in OG33 cells = assay: Western blot of ASPA expression; format: cell-based, human; settings: 0.25% GTA
Protocol: (§3) SDS-PAGE (25 μg protein from whole cell lysates) and western blotting were performed as previously described (Lluri et al. 2008 Exp Cell Res 314:11-24). Cytosol and nuclear fractions were isolated according to standard protocols. Antibodies: rabbit anti-mouse ASPA (2,000×), (Madhavarao et al. 2004 Comp Neurol 472:318-29) rabbit anti-human ASPA (5,000×; GTX1338; GeneTex, Irvine, Calif.), goat anti-human actin (1,000×, sc-1616, Santa Cruz Biotechnology, Santa Cruz, Calif.), rabbit anti-human GAPDH (5,000×, sc-25778, Santa Cruz Biotechnology, Santa Cruz, Calif.), mouse anti-human histone H1 (250×, sc-8030; Santa Cruz Biotechnology, Santa Cruz, Calif.). Species-specific HRP—(3,000×) conjugated secondary antibodies were obtained from Jackson ImmunoResearch (West Grove, Pa.). Immunocomplexes were visualized by enhanced chemiluminescence (PerkinElmer Life Sciences; Boston, Mass.) and densitometry performed using Quantity One software (Bio-Rad; Hercules, Calif.).
(§4) SDS-PAGE (25 μg protein from whole cell lysates) and western blotting were performed as previously described in Example 1.

ASPA in OG35 cells = assay: Western blot of ASPA expression; format: cell-based, human; settings: 0.25% GTA
Protocol: as §3, §4

OG35 GSCs = assay: Orthotopic graft in athymic mice, comparison of priming, concurrent and salvage regimens; format: in vivo; settings: OG35 GSC engrafted mice; priming with GTA two days prior to TMZ treatment
Protocol: Cells (2,500 cells in 4 μl) were injected into the right striatum (1 mm anterior, 1.5 mm lateral to bregma, 3.5 mm deep) of adult athymic mice (8-week-old, 25-28 g). GTA (5.8 g/kg plus 10% v/v Ora-Sweet SF® (Paddock Laboratories, Minneapolis, Minn.) was administered intragastrically daily starting on the third post-operative day. TMZ (20 mg/kg) was administered intragastrically in an oral suspension vehicle containing 2.5 mg/ml Povidone K30, 0.013% citric acid, 50% Ora-Plus® (Paddock Laboratories, Minneapolis, Minn.), 50% Ora-Sweet SF® (Paddock Laboratories, Minneapolis, Minn.) on days 5, 7, 9, 11, and 13. Mice receiving the combined GTA/TMZ therapy received the TMZ in the morning (˜7-8 AM) and GTA in the evening (˜6-7 PM).
Orthotopic grafting was performed as described above in Example 6. In addition to the treatments described above, the following treatments were tested: 1) concurrent (GTA and TMZ on days 5, 7, 9, 11, 13, with GTA alone on days 6, 8, 10, 12 and continuous GTA afterwards), and 2) salvage (GTA administered daily after single course of TMZ on days 5, 7, 9, 11, and 13).

[5] = acetate supplementation in children with Canavan Disease; cited from earlier work

For `CC(=O)OCC(COC(C)=O)OC(C)=O` [GTA, glyceryltriacetate], the Cell cycle arrest [1] was “induced cell cycle arrest”, the Cell cycle arrest [2] was “induced cell cycle arrest” and the “Growth arrest (increased proportion of cells in G0/G1 and decreased proportion in S phase)” value (GBM12 GSCs) was “exerted growth arrest”. For the same compound, the Cell number [3] was “significantly decreased cell number”, the Cell number [4] was “significantly decreased cell number” and the Growth dynamics (GBM8 GSCs) was “reduced growth dynamics”. For the same compound, the “Expression of novel 26 kDa ASPA species (Western blot)” value (ASPA in OG33 cells) was “induced the expression of a novel 26 kDa species”, the “Expression of the putative 36 kDa ASPA protein (Western blot)” value (ASPA in OG33 cells) was “no effect” and the “ASPA expression (Western blot)” value (ASPA in OG35 cells) was “decreased ASPA expression”. The “Survival versus TMZ alone” value (OG35 GSCs) was “increased survival over TMZ alone” and the Adverse effects [5] was “without any adverse effects”.
